In data set [1] the target is T1, FXIII (plasma transglutaminase, factor XIII) (Homo sapiens, UniProt P00488).
T1 construct: purchased Zedira T027
T1 sequence (P00488 1-732): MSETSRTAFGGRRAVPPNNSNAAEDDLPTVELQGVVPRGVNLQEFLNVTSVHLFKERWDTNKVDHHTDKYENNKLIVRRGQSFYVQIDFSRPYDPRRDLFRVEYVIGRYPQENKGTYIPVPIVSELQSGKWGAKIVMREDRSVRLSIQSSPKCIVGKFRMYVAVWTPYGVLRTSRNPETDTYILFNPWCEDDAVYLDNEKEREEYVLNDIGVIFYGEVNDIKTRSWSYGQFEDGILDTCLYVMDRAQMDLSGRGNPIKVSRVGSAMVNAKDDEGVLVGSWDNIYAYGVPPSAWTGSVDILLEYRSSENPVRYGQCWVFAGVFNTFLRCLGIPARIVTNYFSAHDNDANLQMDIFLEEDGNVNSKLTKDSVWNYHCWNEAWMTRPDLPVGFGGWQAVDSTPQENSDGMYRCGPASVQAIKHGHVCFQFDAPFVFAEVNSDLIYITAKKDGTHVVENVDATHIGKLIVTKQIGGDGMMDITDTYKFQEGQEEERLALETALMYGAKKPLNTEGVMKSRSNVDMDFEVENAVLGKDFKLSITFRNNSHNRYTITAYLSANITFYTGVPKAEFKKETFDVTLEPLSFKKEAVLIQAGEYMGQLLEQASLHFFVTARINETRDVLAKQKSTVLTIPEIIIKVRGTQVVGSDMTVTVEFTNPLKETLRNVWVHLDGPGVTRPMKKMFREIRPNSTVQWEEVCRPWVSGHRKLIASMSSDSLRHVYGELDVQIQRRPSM
Briefly: Comparative transglutaminase selectivity assay with casein and dansylcadaverine as substrates: FXIII. The format is biochemical. Particulars: casein as substrate. The source says: The comparative determination of different transglutaminases to determine the selectivity was made with casein and dansylcadaverine as substrates. Therefore, the kit T036 (Zedira, Darmstadt; Refs: Lorand et al, Anal Biochem, 1971, 44:221-31) as well as transglutaminase products T009 (transglutaminase 1), T012 (transglutaminase 3), T021 (transglutaminase 6) and T027 (plasma transglutaminase, factor XIII) are used. Therefore, two different IC50 values for the compounds are given.
The evaluation of the resulting enzyme activity is done using the slope of the straight line obtained by the increase in fluorescence.
To determine the non-inhibited enzyme activity, DMSO instead of inhibitor stock solution is used. IC50 values are determined by plotting the resulting enzyme activity against the logarithm of the inhibitor concentration. IC50 is defined as the concentration of inhibitor resulting in 50% of enzyme activity.
It should be noted that it was measured here against casein as substrate, which is why other apparent inhibition values (IC50 value) result.

In data set [2] the test system is CaCo2 (human colon carcinoma-cell line). Briefly: Cytotoxicity: metabolic activity, EZ4U-Assay, CaCo2. The format is cell-based. On the procedure: (§1) Huh 7 (human hepatome-cell line) and CaCo2 (human colon carcinoma-cell line) were seeded to 96 well plates in Dulbecco's Modified Eagle's Medium (DMEM)/10% fetal calf serum (FCS) and cultivated. The method is known to the skilled person.
(§2) After one hour the inhibitors A63 (ZED1227), A29 (ZED1098) and A61 (ZED1219) were added in the concentrations 0.1 μM to 1 μM. The determination of the proliferation was carried out using the Cell Proliferation ELISA, BrdU (Roche 11 647 229 001): 24 hours after incubation of the cells with the inhibitor BrdU was added. The colorimetric development of the test was made after further 48 hours according to manufacturer's information. The extinction was measured at 450 nm. For determination of the metabolic activity using the EZ4U-Assay (Biomedica B1-5000) the tetrazolium substrate was added to the cells 48 hours after addition of the inhibitor. The capacity for reaction of the cells was measured every hour over a period of 4 hours at 450 nm against a reference filter of 630 nm. DMEM without inhibitor was added as reference in both experiments, as positive control cycloheximide (2.5 μg/ml) and camptothecin (0.2 μg/ml).

For data set [3], the system named is Huh 7 (human hepatome-cell line). Briefly: Cytotoxicity: metabolic activity, EZ4U-Assay, Huh 7. The format is cell-based. On the procedure:
as §1
as §2, with “After one hour the inhibitors A63 (ZED1227), A29 (ZED1098) and A61 (ZED1219) were added in the concentrations 0.1 μM to 1 μM.” left out

`CCOC(=O)/C=C/CC[C@H](NC(C)=O)C(=O)Nc1cccn(CC(=O)NCCC(C)C)c1=O` [A7, (S,E)-Ethyl 6-acetamido-7-(1-(2-(isopentylamino)-2-oxoethyl)-2-oxo-1,2-dihydropyridin-3-ylamino)-7-oxohept-2-enoate] had an IC50 in data set [1] of 105 µM.

Consider `CCOC(=O)/C=C/CC[C@H](NC(=O)c1cncn1C)C(=O)Nc1cccn(CC(=O)NCCC(C)C)c1=O` [A19, (S,E)-Ethyl 7-(1-(2-(isopentylamino)-2-oxoethyl)-2-oxo-1,2-dihydropyridin-3-ylamino)-6-(1-methyl-1H-imidazole-5-carboxamido)-7-oxohept-2-enoate], for which the IC50 in data set [1] was 81.1 µM. `CCOC(=O)/C=C/CC[C@H](NC(=O)CCC(=O)O)C(=O)Nc1cccn(CC(=O)NCCC(C)C)c1=O` [A24, (S,E)-4-(7-Ethoxy-1-(1-(2-(isopentylamino)-2-oxoethyl)-2-oxo-1,2-dihydropyridin-3-ylamino)-1,7-dioxohept-5-en-2-ylamino)-4-oxobutanoic acid] registered an IC50 in data set [1] of 133 µM. Compared with the last molecule, the IC50 is about 1.6-fold higher.

In the case of `COC(=O)/C=C/CC[C@H](NC(C)=O)C(=O)Nc1cccn(CC(=O)NCCC(C)C)c1=O` [A29, (S,E)-methyl 6-acetamido-7-(1-(2-(isopentylamino)-2-oxoethyl)-2-oxo-1,2-dihydropyridin-3-ylamino)-7-oxohept-2-enoate], the “effect on metabolic activity (EZ4U)” value in data set [2] and in data set [3] was “no effect” each time. In addition, the IC50 in data set [1] worked out at 67.4 µM. On to `CCOC(=O)/C=C/CC[C@H](NC(=O)CCC(=O)O)C(=O)Nc1cccn(CC(=O)NCC(CC)CC)c1=O` [A30, (S,E)-4-(7-Ethoxy-1-(1-(2-(2-ethylbutylamino)-2-oxoethyl)-2-oxo-1,2-dihydropyridin-3-ylamino)-1,7-dioxohept-5-en-2-ylamino)-4-oxobutanoic acid], for which inhibition in data set [1] was half-maximal at 90.9 µM (IC50). On to `CCOC(=O)/C=C/CC[C@H](NC(C)=O)C(=O)Nc1cccn(CC(=O)N[C@H](C(=O)OC)[C@H](C)CC)c1=O` [A35, (S,E)-ethyl 6-acetamido-7-(1-(2-((2S,3R)-1-methoxy-3-methyl-1-oxopentan-2-ylamino)-2-oxoethyl)-2-oxo-1,2-dihydropyridin-3-ylamino)-7-oxohept-2-enoate], for which it took 70.7 µM to reach half-maximal inhibition in data set [1] (IC50). Still for that read-out and setting: with `CCOC(=O)/C=C/CC[C@H](NC(C)=O)C(=O)Nc1cccn(CC(=O)NCCC(CC)CC)c1=O` [A42, (S,E)-ethyl 6-acetamido-7-(1-(2-(3-ethylpentylamino)-2-oxoethyl)-2-oxo-1,2-dihydropyridin-3-ylamino)-7-oxohept-2-enoate] the figure was 109 µM. On to `CCOC(=O)/C=C/CC[C@H](NC(=O)c1cncn1C)C(=O)Nc1cccn(CC(=O)N[C@H](C(=O)O)[C@H](C)CC)c1=O` [A53, (2S,3R)-2-(2-(3-((S,E)-7-Ethoxy-2-(1-methyl-1H-imidazole-5-carboxamido)-7-oxohept-5-enamido)-2-oxopyridin-1(2H)-yl)acetamido)-3-methylpentanoic acid], for which the IC50 in data set [1] was found to be 77.7 µM. In data set [1], `CCOC(=O)/C=C/CC[C@H](NC(=O)c1cncn1C)C(=O)Nc1cccn(CC(=O)NCC(CC)CC)c1=O` [A58, (S,E)-Ethyl 7-(1-(2-(2-ethylbutylamino)-2-oxoethyl)-2-oxo-1,2-dihydropyridin-3-ylamino)-6-(1-methyl-1H-imidazole-5-carboxamido)-7-oxohept-2-enoate] registered an IC50 of 120 µM.

`CCOC(=O)/C=C/CC[C@H](NC(=O)c1ccccc1)C(=O)Nc1cccn(CC(=O)N[C@H](C(=O)O)[C@H](C)CC)c1=O` [A59, (2S,3R)-2-(2-(3-((S,E)-2-Benzamido-7-ethoxy-7-oxohept-5-enamido)-2-oxopyridin-1(2H)-yl)acetamido)-3-methylpentanoic acid] yielded an IC50 in data set [1] of 79.6 µM. This IC50 lies about 1.5-fold lower than the previous one. Same read-out and setting: with `CC[C@@H](C)[C@H](NC(=O)Cn1cccc(NC(=O)[C@H](CC/C=C/C(=O)OC)NC(=O)c2cncn2C)c1=O)C(=O)O` [A60, (2S,3R)-2-(2-(3-((S,E)-7-Methoxy-2-(1-methyl-1H-imidazole-5-carboxamido)-7-oxohept-5-enamido)-2-oxopyridin-1(2H)-yl)acetamido)-3-methylpentanoic acid] the figure was 73.2 µM. Take `CC[C@@H](C)[C@H](NC(=O)Cn1cccc(NC(=O)[C@H](CC/C=C/C(=O)OC)NC(=O)c2ccccc2)c1=O)C(=O)O` [A61, (2S,3R)-2-(2-(3-((S,E)-2-benzamido-7-methoxy-7-oxohept-5-enamido)-2-oxopyridin-1(2H)-yl)acetamido)-3-methylpentanoic acid]: the “effect on metabolic activity (EZ4U)” value in data set [2] and in data set [3] was “no effect” each time. Besides, the IC50 in data set [1] came out at 63.4 µM. In data set [1], `CCOC(=O)/C=C/CC[C@H](NC(C)=O)C(=O)Nc1cccn(CC(=O)NCC(CC)CC)c1=O` [A62, (S,E)-Ethyl 6-acetamido-7-(1-(2-(2-ethylbutylamino)-2-oxoethyl)-2-oxo-1,2-dihydropyridin-3-ylamino)-7-oxohept-2-enoate] returned an IC50 of 122 µM. Take `CCC(CC)CNC(=O)Cn1cccc(NC(=O)[C@H](CC/C=C/C(=O)OC)NC(=O)c2cncn2C)c1=O` [A63, (S,E)-Methyl 7-(1-(2-(2-ethylbutylamino)-2-oxoethyl)-2-oxo-1,2-dihydropyridin-3-ylamino)-6-(1-methyl-1H-imidazole-5-carboxamido)-7-oxohept-2-enoate]: the “effect on metabolic activity (EZ4U)” value in data set [2] and in data set [3] was “no effect” in each case. For the same molecule, in data set [1], half-maximal inhibition (IC50) was put at 89 µM. In the case of `COC(=O)/C=C/CC[C@H](NC(C)=O)C(=O)Nc1cccn(CC(=O)N2CCCC(C)C2)c1=O` (stereo partly drawn) [A64, (6S,E)-Methyl 6-acetamido-7-(1-(2-(3-methylpipendin-1-yl)-2-oxoethyl)-2-oxo-1,2-dihydropyridin-3-ylamino)-7-oxohept-2-enoate], half-maximal inhibition in data set [1] (IC50) was put at 120 µM. Same read-out and setting: the figure for `COC(=O)/C=C/CC[C@H](NC(C)=O)C(=O)Nc1cccn(CC(=O)N2CCC(C(F)(F)F)CC2)c1=O` [A65, (S,E)-Methyl 6-acetamido-7-oxo-7-(2-oxo-1-(2-oxo-2-(4-(trifluoromethyl)piperidin-1-yl)ethyl)-1,2-dihydropyridin-3-ylamino)hept-2-enoate] is 156 µM. Consider `CCC(CC)CNC(=O)Cn1cccc(NC(=O)[C@H](CC/C=C/C(=O)OC)NC(C)=O)c1=O` [A79, (S,E)-Methyl 6-acetamido-7-(1-(2-(2-ethylbutylamino)-2-oxoethyl)-2-oxo-1,2-dihydropyridin-3-ylamino)-7-oxohept-2-enoate], for which the IC50 in data set [1] worked out at 78.2 µM.

Usually IC50 stands for the midpoint of a concentration-inhibition curve. Low values mean higher potency, high ones lower potency.
